One block for each molecule: values may come before it.
How the values were obtained:
MCF7 [1] = assay: Antiproliferative activity against human MCF7 cells; assay type: functional, cell-based
MDA-MB-231 [2] = assay: Antiproliferative activity against human MDA-MB-231 cells; assay type: functional, cell-based
Carbonic anhydrase 2 [3] = biological target: T1, Carbonic anhydrase 2 (Homo sapiens, UniProt P00918); assay: Inhibition of human carbonic anhydrase 2
Carbonic anhydrase 4 = Carbonic anhydrase 4 (Homo sapiens, UniProt P22748); assay: Inhibition of human carbonic anhydrase 4
Chain of Carbonic anhydrase 4 (P22748 whole entry): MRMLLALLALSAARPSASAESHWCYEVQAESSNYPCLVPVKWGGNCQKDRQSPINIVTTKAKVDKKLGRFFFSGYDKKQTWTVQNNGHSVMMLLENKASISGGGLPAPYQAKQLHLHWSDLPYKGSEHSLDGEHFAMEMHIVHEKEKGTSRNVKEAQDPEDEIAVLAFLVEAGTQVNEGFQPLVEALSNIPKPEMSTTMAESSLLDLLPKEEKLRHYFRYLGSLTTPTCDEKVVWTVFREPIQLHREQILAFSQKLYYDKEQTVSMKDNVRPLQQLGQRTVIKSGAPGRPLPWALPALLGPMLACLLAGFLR

Carbonic anhydrase 9 = Carbonic anhydrase 9 (Homo sapiens, UniProt Q16790); assay: Inhibition of human carbonic anhydrase 9
Steryl-sulfatase [4] = biological target: T2, Steryl-sulfatase (Homo sapiens, UniProt P08842); assay: Inhibition of steroid sulfatase in human MCF7 cells; assay type: cell-based
T2 sequence (P08842 whole entry): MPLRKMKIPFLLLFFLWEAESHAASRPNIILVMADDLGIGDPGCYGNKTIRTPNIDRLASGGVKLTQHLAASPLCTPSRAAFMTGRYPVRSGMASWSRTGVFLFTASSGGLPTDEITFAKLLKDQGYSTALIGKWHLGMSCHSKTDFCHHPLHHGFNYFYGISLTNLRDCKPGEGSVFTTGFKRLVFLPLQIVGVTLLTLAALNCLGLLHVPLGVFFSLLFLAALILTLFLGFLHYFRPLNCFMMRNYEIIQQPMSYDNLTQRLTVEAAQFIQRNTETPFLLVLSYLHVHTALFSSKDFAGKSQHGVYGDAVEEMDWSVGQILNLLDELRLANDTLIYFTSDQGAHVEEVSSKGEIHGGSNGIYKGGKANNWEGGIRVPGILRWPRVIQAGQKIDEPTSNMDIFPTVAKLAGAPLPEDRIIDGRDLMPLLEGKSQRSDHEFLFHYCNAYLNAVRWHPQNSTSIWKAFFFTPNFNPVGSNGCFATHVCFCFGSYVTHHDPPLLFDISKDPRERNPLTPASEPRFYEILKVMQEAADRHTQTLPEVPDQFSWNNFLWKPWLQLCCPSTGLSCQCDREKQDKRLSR

Steryl-sulfatase [5] = biological target: T2, Steryl-sulfatase; assay: Inhibition of steroid sulfatase derived form human placental microsomes; parameters: species or system Placenta
Rattus norvegicus [6] = assay: In vivo inhibition of steroid sulfatase in Wistar rat assessed as enzyme recovery at 10 mg/kg, sc single dose treated for 3 days measured after 1 week relative to control; assay type: functional; parameters: scale not given: the % may be the effect or the level left
Rattus norvegicus [7] = assay: In vivo inhibition of steroid sulfatase in Wistar rat assessed as enzyme recovery at 10 mg/kg, sc single dose treated for 10 days measured after 15 days relative to control; assay type: functional; parameters: scale not given: the % may be the effect or the level left
MCF7 [8] = assay: Antiproliferative activity against human MCF7 cells at 1 uM relative to control; assay type: functional
Steryl-sulfatase [9] = biological target: T2, Steryl-sulfatase; assay: Inhibition of human placental steroid sulfatase expressed in HEK293 cells using [3H] E1S as substrate after 2 hrs by liquid scintillation counting method; assay type: cell-based
Steryl-sulfatase [10] = biological target: T2, Steryl-sulfatase; assay: Inhibition of human placental steroid sulfatase
Steryl-sulfatase [11] = biological target: T2, Steryl-sulfatase; assay: Inhibition of steroid sulfatase (unknown origin)
Steryl-sulfatase [12] = biological target: T2, Steryl-sulfatase; assay: Inhibition of steroid sulfatase (unknown origin) expressed in CHO cells; assay type: cell-based
Steryl-sulfatase [13] = biological target: T2, Steryl-sulfatase; assay: Inhibition of steroid sulfatase (unknown origin) expressed in human MCF7 cells; assay type: cell-based
Rattus norvegicus [14] = species on record: Rattus norvegicus; assay: animal or person; conditions: Wistar, 3 h
Rattus norvegicus [15] = assay: In vivo inhibition of steroid sulfatase in Wistar rat at 10 mg/kg, po after 3 hrs relative to control; assay type: functional
Rattus norvegicus [16] = assay: In vivo inhibition of aromatase in Wistar rat at 10 mg/kg, po after 3 hrs relative to control; assay type: functional
MCF7 [17] = assay: Antitumor activity against human MCF7 cells xenografted in MF-1 nude mouse assessed as tumor growth inhibition at 5 mg/kg, po treated for 4 weeks in presence of 2-deoxy-D-glucose by immunohistochemistry relative to control; assay type: functional; conditions: 672 h, read-out: TGI
MDA-MB-231 [18] = assay: Antiproliferative activity against estrogen receptor-negative human MDA-MB-231 cells; assay type: functional, cell-based
MCF7 [19] = assay: Antiproliferative activity against estrogen receptor-positive human MCF7 cells; assay type: functional, cell-based
Rattus norvegicus [20] = assay: In vivo inhibition of steroid sulfatase in Wistar rat at 10 mg/kg, po relative to control; assay type: functional
Cholinesterase = Cholinesterase (Equus caballus, UniProt P81908); assay: Inhibition of equine BChE using butyrylthiocholine iodide as substrate preincubated for 15 mins followed by substrate addition by Ellman's method
Chain of Cholinesterase (P81908 whole entry): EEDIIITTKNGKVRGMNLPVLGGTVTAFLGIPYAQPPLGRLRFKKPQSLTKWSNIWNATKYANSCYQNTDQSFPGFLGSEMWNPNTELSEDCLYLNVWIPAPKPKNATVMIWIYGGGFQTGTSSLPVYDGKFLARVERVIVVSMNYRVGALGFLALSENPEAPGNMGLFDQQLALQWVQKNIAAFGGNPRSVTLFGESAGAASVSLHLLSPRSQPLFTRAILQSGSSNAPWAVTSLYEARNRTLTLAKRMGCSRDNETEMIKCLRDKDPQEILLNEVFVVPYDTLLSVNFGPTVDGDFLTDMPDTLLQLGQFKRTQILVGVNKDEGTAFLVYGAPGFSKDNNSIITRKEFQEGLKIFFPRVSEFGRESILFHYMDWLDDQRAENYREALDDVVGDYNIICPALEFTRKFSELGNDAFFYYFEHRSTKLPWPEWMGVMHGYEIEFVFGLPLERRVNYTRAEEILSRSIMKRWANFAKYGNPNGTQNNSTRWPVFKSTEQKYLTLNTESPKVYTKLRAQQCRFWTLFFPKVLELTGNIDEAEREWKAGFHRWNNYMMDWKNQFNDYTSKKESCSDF

Acetylcholinesterase = Acetylcholinesterase (Electrophorus electricus, UniProt O42275); assay: Inhibition of electric ee AChE using acetylthiocholine iodide as substrate preincubated for 15 mins followed by substrate addition by Ellman's method
Chain of Acetylcholinesterase (O42275 whole entry): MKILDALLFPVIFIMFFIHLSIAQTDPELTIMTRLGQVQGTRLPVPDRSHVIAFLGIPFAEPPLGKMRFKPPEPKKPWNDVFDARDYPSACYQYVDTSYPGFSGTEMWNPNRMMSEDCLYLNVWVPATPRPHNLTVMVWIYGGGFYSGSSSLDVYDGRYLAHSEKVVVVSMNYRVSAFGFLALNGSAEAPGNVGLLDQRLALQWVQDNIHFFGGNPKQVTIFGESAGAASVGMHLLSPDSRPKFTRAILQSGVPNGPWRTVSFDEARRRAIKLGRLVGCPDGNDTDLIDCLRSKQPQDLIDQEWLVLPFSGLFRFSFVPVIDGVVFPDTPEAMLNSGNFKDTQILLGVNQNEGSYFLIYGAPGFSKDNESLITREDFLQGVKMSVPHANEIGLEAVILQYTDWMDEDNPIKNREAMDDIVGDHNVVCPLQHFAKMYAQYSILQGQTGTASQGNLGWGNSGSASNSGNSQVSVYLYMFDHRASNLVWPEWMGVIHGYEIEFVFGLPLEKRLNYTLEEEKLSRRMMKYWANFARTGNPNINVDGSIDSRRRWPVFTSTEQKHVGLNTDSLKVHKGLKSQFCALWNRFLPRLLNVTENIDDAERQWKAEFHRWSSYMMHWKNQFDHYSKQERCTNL

Carbonic anhydrase 2 [21] = biological target: T1, Carbonic anhydrase 2; assay: Inhibition of human carbonic anhydrase 2 using p-nitrophenylacetate as substrate after 3 mins
Carbonic anhydrase 1 = Carbonic anhydrase 1 (Homo sapiens, UniProt P00915); assay: Inhibition of human carbonic anhydrase 1 using p-nitrophenylacetate as substrate after 3 mins
Chain of Carbonic anhydrase 1 (P00915 whole entry): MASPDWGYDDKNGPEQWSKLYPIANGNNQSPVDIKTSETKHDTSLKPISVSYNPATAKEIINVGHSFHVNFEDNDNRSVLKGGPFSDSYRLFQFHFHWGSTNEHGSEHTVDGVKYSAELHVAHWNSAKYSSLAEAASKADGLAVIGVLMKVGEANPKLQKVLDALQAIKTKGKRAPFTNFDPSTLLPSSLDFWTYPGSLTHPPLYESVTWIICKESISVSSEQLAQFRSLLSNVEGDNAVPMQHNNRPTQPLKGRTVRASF

Homo sapiens = species on record: Homo sapiens; assay: Selectivity ratio of IC50 for human carbonic anhydrase 1 to IC50 for human carbonic anhydrase 9

Compound: CCc1cc2c(cc1OS(N)(=O)=O)CC[C@@H]1[C@@H]2CC[C@]2(C)[C@@H](OS(N)(=O)=O)CC[C@@H]12
IC50 (MCF7 [1]): 70 nM
IC50 (MDA-MB-231 [2]): 80 nM

Ki (Carbonic anhydrase 2 [3]): 28.7 to 84.3 nM
Ki (Carbonic anhydrase 4): 76.1 nM
Ki (Carbonic anhydrase 9): 17.6 to 73.3 nM
Compound: NS(=O)(=O)Oc1ccc(NC2=NC(=O)/C(=C\c3ccccc3)S2)cc1

Ki (Carbonic anhydrase 2 [3]): 28.7 to 84.3 nM
Ki (Carbonic anhydrase 9): 17.6 to 73.3 nM
Compound: NS(=O)(=O)Oc1ccc(NC2=NC(=O)/C(=C\c3cccc4ccccc34)S2)cc1

Ki (Carbonic anhydrase 2 [3]): 28.7 to 84.3 nM
Ki (Carbonic anhydrase 9): 17.6 to 73.3 nM
Compound: COc1ccc(/C=C2/SC(Nc3ccc(OS(N)(=O)=O)cc3)=NC2=O)cc1

Ki (Carbonic anhydrase 2 [3]): 28.7 to 84.3 nM
Ki (Carbonic anhydrase 9): 17.6 to 73.3 nM
Compound: NS(=O)(=O)Oc1ccc(NC2=NC(=O)/C(=C\c3ccc([N+](=O)[O-])cc3)S2)cc1

Ki (Carbonic anhydrase 2 [3]): 28.7 to 84.3 nM
Ki (Carbonic anhydrase 9): 17.6 to 73.3 nM
Compound: Cc1ccc(/C=C2/SC(Nc3ccc(OS(N)(=O)=O)cc3)=NC2=O)cc1

Ki (Carbonic anhydrase 2 [3]): 28.7 to 84.3 nM
Ki (Carbonic anhydrase 9): 17.6 to 73.3 nM
Compound: NS(=O)(=O)Oc1ccc(NC2=NC(=O)/C(=C\c3ccc(Cl)cc3)S2)cc1

Compound: CCCCCCc1c(C)c2ccc(OS(N)(=O)=O)cc2oc1=O
IC50 (Steryl-sulfatase [4]): 0.68 nM
IC50 (Steryl-sulfatase [5]): 32 nM

Compound: C[C@]12CC[C@@H]3c4ccc(OS(N)(=O)=O)cc4CC[C@H]3[C@@H]1CCC2=O [EMATE]
Activity (Rattus norvegicus [6]): 10 - 15%
Activity (Rattus norvegicus [7]): 30%

Compound: COc1cc2c(cc1OS(N)(=O)=O)CC[C@@H]1[C@@H]2CC[C@]2(C)C(=O)CC[C@@H]12
Activity (MCF7 [8]): 52%

IC50 (Steryl-sulfatase [9]): 0.4 nM
Compound: CCCCCCC(O)(CCCCc1ccc(OS(N)(=O)=O)cc1)c1ccc(C(C)(C)C)cc1 (centres undefined)

Compound: NS(=O)(=O)Oc1ccc(CCNC(=O)C(F)(F)C(F)(F)C(F)(F)C(F)(F)C(F)(F)C(F)(F)C(F)(F)C(F)(F)C(F)(F)C(F)(F)F)cc1
IC50 (Steryl-sulfatase [10]): 2180 nM

IC50 (Steryl-sulfatase [11]): 30 nM
Compound: Cc1cc(=O)oc2cc(OS(N)(=O)=O)ccc12

IC50 (Steryl-sulfatase [11]): 1 nM
Compound: NS(=O)(=O)Oc1ccc2c3c(c(=O)oc2c1)CCCCCC3

IC50 (Steryl-sulfatase [12]): 0.15 to 31.8 nM
IC50 (Steryl-sulfatase [13]): 0.15 to 31.8 nM
Compound: NS(=O)(=O)Oc1ccc2nc(C=C3C4CC5CC(C4)CC3C5)oc2c1

IC50 (Rattus norvegicus [14]): 205 nM
Compound: N#Cc1ccc(N(Cc2ccc3c(Br)c(OS(N)(=O)=O)ccc3c2)n2cnnc2)cc1
inhibition in vivo at 10 mg/kg (Rattus norvegicus [15]): 93%
inhibition in vivo at 10 mg/kg (Rattus norvegicus [16]): 93%

Ki (Carbonic anhydrase 2 [3]): 28.7 to 84.3 nM
Ki (Carbonic anhydrase 9): 17.6 to 73.3 nM
Compound: NS(=O)(=O)Oc1ccc(NC2=NC(=O)/C(=C\c3ccc(C(F)(F)F)cc3)S2)cc1

Compound: COc1cc2c(cc1OS(N)(=O)=O)CC[C@@H]1[C@@H]2CC[C@]2(C)[C@@H](OS(N)(=O)=O)CC[C@@H]12
inhibition in vivo at 5 mg/kg (MCF7 [17]): 76%
IC50 (MDA-MB-231 [18]): 290 nM
IC50 (MCF7 [19]): 250 nM

Compound: Cc1c(Cc2ccccc2)c(=O)oc2cc(OS(N)(=O)=O)ccc12
IC50 (Steryl-sulfatase [4]): 1 nM
IC50 (Steryl-sulfatase [5]): 8 nM

Compound: N#Cc1ccc(N(Cc2ccc(OS(N)(=O)=O)cc2)n2cnnc2)cc1
inhibition in vivo at 10 mg/kg (Rattus norvegicus [20]): > 98%

Compound: CC(C)[C@@H]1CC[C@@H](C)C[C@H]1OS(=O)(=O)NC(c1ccccc1)c1ccccc1
IC50 (Cholinesterase): 246 nM
IC50 (Acetylcholinesterase): 206 nM
IC50 (Carbonic anhydrase 2 [21]): 16 nM
IC50 (Carbonic anhydrase 1): 44 nM

Ratio IC50 (Homo sapiens): 3.38
IC50 (Carbonic anhydrase 9): 101 nM
Compound: NS(=O)(=O)Oc1ccc(/C=C/C(=O)C[C@@H]2O[C@H](CO)[C@@H](O)[C@H](O)[C@H]2O)cc1

Ki (Carbonic anhydrase 2 [3]): 28.7 to 84.3 nM
Ki (Carbonic anhydrase 9): 17.6 to 73.3 nM
Compound: NS(=O)(=O)Oc1ccc(NC2=NC(=O)/C(=C\c3ccc(F)cc3)S2)cc1

IC50 (Steryl-sulfatase [10]): 2130 nM
Compound: NS(=O)(=O)Oc1ccc2ccc(=O)oc2c1

Ki (Carbonic anhydrase 2 [3]): 28.7 to 84.3 nM
Ki (Carbonic anhydrase 4): 42.3 nM
Ki (Carbonic anhydrase 9): 17.6 to 73.3 nM
Compound: COc1cc(/C=C2/SC(Nc3ccc(OS(N)(=O)=O)cc3)=NC2=O)cc(OC)c1OC
